# Laboratory results as given in PubChem BioAssay (NCI).
#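 Cells were grown in 96-well plates and exposed to each compound for 48 hours at five concentrations; endpoints were interpolated linearly between bracketing concentrations, or set to the highest concentration if not reached. At the GI50, growth is halved. TGI marks complete inhibition of growth.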
# How the values were obtained:
# Test in all cases: NCI tumour cell line growth inhibition, 48 h
# 786-0 renal = tested on: 786-0 renal
# A498 renal = tested on: A498 renal
# A549 NSCLC = tested on: A549 NSCLC
# ACHN renal = tested on: ACHN renal
# BT-549 breast = tested on: BT-549 breast
# CAKI-1 renal = tested on: CAKI-1 renal
# CCRF-CEM leukemia = tested on: CCRF-CEM leukemia
# COLO 205 colon = tested on: COLO 205 colon
# DU-145 prostate = tested on: DU-145 prostate
# HCC-2998 colon = tested on: HCC-2998 colon
# HCT-116 colon = tested on: HCT-116 colon
# HOP-62 NSCLC = tested on: HOP-62 NSCLC
# HOP-92 NSCLC = tested on: HOP-92 NSCLC
# HS 578T breast = tested on: HS 578T breast
# HT29 colon = tested on: HT29 colon
# IGROV1 ovarian = tested on: IGROV1 ovarian
# KM12 colon = tested on: KM12 colon
# LOX IMVI melanoma = tested on: LOX IMVI melanoma
# M14 melanoma = tested on: M14 melanoma
# MALME-3M melanoma = tested on: MALME-3M melanoma
# MDA-MB-231 breast = tested on: MDA-MB-231 breast
# MDA-MB-435 = tested on: MDA-MB-435
# MOLT-4 leukemia = tested on: MOLT-4 leukemia
# NCI-H226 lung = tested on: NCI-H226 lung
# NCI-H23 lung = tested on: NCI-H23 lung
# NCI-H522 lung = tested on: NCI-H522 lung
# NCI/ADR-RES ovarian = tested on: NCI/ADR-RES ovarian
# OVCAR-3 ovarian = tested on: OVCAR-3 ovarian
# OVCAR-4 ovarian = tested on: OVCAR-4 ovarian
# OVCAR-5 ovarian = tested on: OVCAR-5 ovarian
# OVCAR-8 ovarian = tested on: OVCAR-8 ovarian
# PC-3 prostate = tested on: PC-3 prostate
# RPMI-8226 leukemia = tested on: RPMI-8226 leukemia
# RXF 393 renal = tested on: RXF 393 renal
# SF-268 CNS = tested on: SF-268 CNS
# SF-295 CNS = tested on: SF-295 CNS
# SF-539 CNS = tested on: SF-539 CNS
# SK-MEL-28 melanoma = tested on: SK-MEL-28 melanoma
# SK-MEL-5 melanoma = tested on: SK-MEL-5 melanoma
# SK-OV-3 ovarian = tested on: SK-OV-3 ovarian
# SN12C renal = tested on: SN12C renal
# SNB-19 CNS = tested on: SNB-19 CNS
# SNB-75 CNS = tested on: SNB-75 CNS
# SR leukemia = tested on: SR leukemia
# T-47D breast = tested on: T-47D breast
# TK-10 renal = tested on: TK-10 renal
# U251 CNS = tested on: U251 CNS
# UACC-257 melanoma = tested on: UACC-257 melanoma
# UACC-62 melanoma = tested on: UACC-62 melanoma
# UO-31 renal = tested on: UO-31 renal
compound,measurement,setting,value
c1ccc(CNc2nc(Nc3ccccc3)nc3ccccc23)cc1,GI50,786-0 renal,1.66 µM
same,TGI,786-0 renal,3.12 µM
same,GI50,A498 renal,1.29 µM
same,TGI,A498 renal,5.7 µM
same,GI50,A549 NSCLC,1.84 µM
same,TGI,A549 NSCLC,5.35 µM
same,GI50,ACHN renal,1.87 µM
same,TGI,ACHN renal,4.16 µM
same,GI50,BT-549 breast,1.9 µM
same,TGI,BT-549 breast,3.97 µM
same,GI50,CAKI-1 renal,2.04 µM
same,TGI,CAKI-1 renal,5.18 µM
same,GI50,CCRF-CEM leukemia,2.13 µM
same,TGI,CCRF-CEM leukemia,6 µM
same,GI50,COLO 205 colon,1.89 µM
same,TGI,COLO 205 colon,3.77 µM
same,GI50,DU-145 prostate,3.06 µM
same,TGI,DU-145 prostate,10.7 µM
same,GI50,HCC-2998 colon,1.99 µM
same,TGI,HCC-2998 colon,4.43 µM
same,GI50,HCT-116 colon,1.71 µM
same,TGI,HCT-116 colon,3.3 µM
same,GI50,HOP-62 NSCLC,2.3 µM
same,TGI,HOP-62 NSCLC,5.17 µM
same,GI50,HOP-92 NSCLC,1.45 µM
same,TGI,HOP-92 NSCLC,3.05 µM
same,GI50,HS 578T breast,2.17 µM
same,TGI,HS 578T breast,6.01 µM
same,GI50,HT29 colon,2.06 µM
same,TGI,HT29 colon,4.88 µM
same,GI50,IGROV1 ovarian,2.59 µM
same,TGI,IGROV1 ovarian,7.44 µM
same,GI50,KM12 colon,2.92 µM
same,TGI,KM12 colon,10.1 µM
same,GI50,LOX IMVI melanoma,1.88 µM
same,TGI,LOX IMVI melanoma,3.4 µM
same,GI50,M14 melanoma,1.83 µM
same,TGI,M14 melanoma,3.6 µM
same,GI50,MALME-3M melanoma,1.7 µM
same,TGI,MALME-3M melanoma,3.38 µM
same,GI50,MDA-MB-231 breast,1.58 µM
same,TGI,MDA-MB-231 breast,3.12 µM
same,GI50,MDA-MB-435,1.72 µM
same,TGI,MDA-MB-435,3.67 µM
same,GI50,MOLT-4 leukemia,2.21 µM
same,TGI,MOLT-4 leukemia,5.37 µM
same,GI50,NCI-H226 lung,2.26 µM
same,TGI,NCI-H226 lung,11.6 µM
same,GI50,NCI-H23 lung,2.17 µM
same,TGI,NCI-H23 lung,9.25 µM
same,GI50,NCI-H522 lung,1.45 µM
same,TGI,NCI-H522 lung,3.23 µM
same,GI50,NCI/ADR-RES ovarian,1.99 µM
same,TGI,NCI/ADR-RES ovarian,5 µM
same,GI50,OVCAR-3 ovarian,1.77 µM
same,TGI,OVCAR-3 ovarian,3.53 µM
same,GI50,OVCAR-4 ovarian,2.05 µM
same,TGI,OVCAR-4 ovarian,8.04 µM
same,GI50,OVCAR-5 ovarian,1.86 µM
same,TGI,OVCAR-5 ovarian,4.19 µM
same,GI50,OVCAR-8 ovarian,1.99 µM
same,TGI,OVCAR-8 ovarian,5.09 µM
same,GI50,PC-3 prostate,1.66 µM
same,TGI,PC-3 prostate,4.9 µM
same,GI50,RPMI-8226 leukemia,1.41 µM
same,TGI,RPMI-8226 leukemia,4.42 µM
same,GI50,RXF 393 renal,1.65 µM
same,TGI,RXF 393 renal,3.2 µM
same,GI50,SF-268 CNS,3.01 µM
same,TGI,SF-268 CNS,9.3 µM
same,GI50,SF-295 CNS,1.73 µM
same,TGI,SF-295 CNS,3.77 µM
same,GI50,SF-539 CNS,1.69 µM
same,TGI,SF-539 CNS,3.14 µM
same,GI50,SK-MEL-28 melanoma,1.7 µM
same,TGI,SK-MEL-28 melanoma,3.24 µM
same,GI50,SK-MEL-5 melanoma,1.41 µM
same,TGI,SK-MEL-5 melanoma,2.76 µM
same,GI50,SK-OV-3 ovarian,3.26 µM
same,TGI,SK-OV-3 ovarian,9.51 µM
same,GI50,SN12C renal,1.73 µM
same,TGI,SN12C renal,3.7 µM
same,GI50,SNB-19 CNS,3.16 µM
same,TGI,SNB-19 CNS,14.6 µM
same,GI50,SNB-75 CNS,1.93 µM
same,TGI,SNB-75 CNS,6.5 µM
same,GI50,SR leukemia,2.28 µM
same,TGI,SR leukemia,6.07 µM
same,GI50,T-47D breast,1.72 µM
same,TGI,T-47D breast,4.46 µM
same,GI50,TK-10 renal,2.02 µM
same,TGI,TK-10 renal,4.53 µM
same,GI50,U251 CNS,1.52 µM
same,TGI,U251 CNS,2.91 µM
same,GI50,UACC-257 melanoma,1.78 µM
same,TGI,UACC-257 melanoma,3.78 µM
same,GI50,UACC-62 melanoma,1.48 µM
same,TGI,UACC-62 melanoma,2.95 µM
same,GI50,UO-31 renal,2.1 µM
same,TGI,UO-31 renal,8.53 µM
